# Assay results taken from US20220088016A1, “CANCER TREATMENT USING MULTI-TARGETED KINASE INHIBITOR IN COMBINATION OF PROTEIN KINASE BIOMARKERS” (ZHEJIANG CROWNMAB BIOTECH CO. LTD., priority 2019, published 2022).
# pIC50: −log10 of the molar value.
# Tests used:
# [1] = molecular target: PFPK5 (P.falciparum) (Plasmodium falciparum, UniProt P61075); assay: Kinase profiling; format: binding; settings: read-out: % Ctrl @ 1000 nM
# [2] = molecular target: CASK (Homo sapiens, UniProt O14936); assay: Kinase profiling; format: binding; settings: read-out: % Ctrl @ 1000 nM
# [3] = molecular target: DDR1 (Homo sapiens, UniProt Q08345); assay: Kinase profiling; format: binding; settings: read-out: % Ctrl @ 1000 nM
# [4] = molecular target: T1, NEK7 (Homo sapiens, UniProt Q8TDX7); assay: Kinase profiling; format: binding; settings: read-out: % Ctrl @ 1000 nM
# T1 construct: T7 phage fusion (said for most assays); made in house
# [5] = molecular target: CIT (Homo sapiens, UniProt O14578); assay: Kinase profiling; format: binding; settings: read-out: % Ctrl @ 1000 nM
# [6] = tested on: FLT3 (ITD); assay: Kinase profiling; format: binding
# [7] = molecular target: EGFR (L858R, T790M) (Homo sapiens, UniProt P00533, L858R/T790M); assay: Kinase profiling; format: binding; settings: read-out: % Ctrl @ 1000 nM
# [8] = molecular target: IRAK4 (Homo sapiens, UniProt Q9NWZ3); assay: Kinase profiling; format: binding; settings: read-out: % Ctrl @ 1000 nM
# [9] = molecular target: EGFR (T790M) (Homo sapiens, UniProt P00533, T790M); assay: Kinase profiling; format: binding; settings: read-out: % Ctrl @ 1000 nM
# [10] = molecular target: CAMK1G (Homo sapiens, UniProt Q96NX5); assay: Kinase profiling; format: binding; settings: read-out: % Ctrl @ 1000 nM
# [11] = molecular target: EGFR (L861Q) (Homo sapiens, UniProt P00533, L861Q); assay: Kinase profiling; format: binding; settings: read-out: % Ctrl @ 1000 nM
# [12] = molecular target: T2, ErbB4 (h) (Homo sapiens, UniProt Q15303); assay: Kinase IC50 (Eurofins KinaseProfiler); format: biochemical
# T2 construct: purchased Eurofins (KinaseProfiler service)
# Procedure, shortened: (§1)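 Per standard kinase SOPs, ATP at selected level initiates reactions containing compound, enzyme and substrate, added in that order. IC50 is fitted from activity remaining as percentage of DMSO control.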
# [13] = molecular target: T3, SAPK2b (h) (Homo sapiens, UniProt Q15759); assay: Kinase IC50 (Eurofins KinaseProfiler); format: biochemical
# T3 construct: purchased Eurofins
# Procedure, shortened: as §1
# [14] = molecular target: T4, cKit (V654A) (h) (Homo sapiens, UniProt P10721, V654A); assay: Kinase IC50 (Eurofins KinaseProfiler); format: biochemical
# T4 construct: purchased Eurofins (KinaseProfiler service)
# Procedure, shortened: as §1
# [15] = molecular target: CAMKK1 (Homo sapiens, UniProt Q8N5S9); assay: Kinase profiling; format: binding; settings: read-out: % Ctrl @ 1000 nM
# [16] = molecular target: FGFR3 (Homo sapiens, UniProt P22607); assay: Kinase profiling; format: binding; settings: read-out: % Ctrl @ 1000 nM
# [17] = molecular target: T5, NEK3 (Homo sapiens, UniProt P51956); assay: Kinase profiling; format: binding; settings: read-out: % Ctrl @ 1000 nM
# T5 construct: T7 phage fusion (said for most assays); made in house
# [18] = molecular target: BMPR1B (Homo sapiens, UniProt O00238); assay: Kinase profiling; format: binding; settings: read-out: % Ctrl @ 1000 nM
# [19] = molecular target: DYRK1B (Homo sapiens, UniProt Q9Y463); assay: Kinase profiling; format: binding; settings: read-out: % Ctrl @ 1000 nM
# [20] = molecular target: CAMK1 (Homo sapiens, UniProt Q14012); assay: Kinase profiling; format: binding; settings: read-out: % Ctrl @ 1000 nM
# [21] = molecular target: SGK (Homo sapiens, UniProt O00141); assay: Kinase profiling; format: binding; settings: read-out: % Ctrl @ 1000 nM
# [22] = molecular target: MAP3K1 (Homo sapiens, UniProt Q13233); assay: Kinase profiling; format: binding; settings: read-out: % Ctrl @ 1000 nM
# [23] = molecular target: T6, MLCK (Homo sapiens, UniProt Q32MK0); assay: Kinase profiling; format: binding; settings: read-out: % Ctrl @ 1000 nM
# T6 construct: T7 phage fusion (stated for most kinases of the panel only); made in house; host or cells: T7 phage in E. coli (BL21-derived) or HEK-293 cells
# [24] = molecular target: CAMKK2 (Homo sapiens, UniProt Q96RR4); assay: Kinase profiling; format: binding; settings: read-out: % Ctrl @ 1000 nM
# [25] = molecular target: ERBB2 (Homo sapiens, UniProt P04626); assay: Kinase profiling; format: binding; settings: read-out: % Ctrl @ 1000 nM
# [26] = molecular target: T7, MEK6 (Homo sapiens, UniProt P52564); assay: Kinase profiling; format: binding; settings: read-out: % Ctrl @ 1000 nM
# T7 construct: T7 phage fusion (stated for most kinases of the panel only); made in house; host or cells: T7 phage in E. coli (BL21-derived) or HEK-293 cells
# [27] = molecular target: WNK2 (Homo sapiens, UniProt Q9Y3S1); assay: Kinase profiling; format: binding; settings: read-out: % Ctrl @ 1000 nM
# [28] = molecular target: TYRO3 (Homo sapiens, UniProt Q06418); assay: Kinase profiling; format: binding; settings: read-out: % Ctrl @ 1000 nM
# [29] = molecular target: TIE2 (Homo sapiens, UniProt Q02763); assay: Kinase profiling; format: binding; settings: read-out: % Ctrl @ 1000 nM
# [30] = molecular target: SRMS (Homo sapiens, UniProt Q9H3Y6); assay: Kinase profiling; format: binding; settings: read-out: % Ctrl @ 1000 nM
# [31] = molecular target: PRKG1 (Homo sapiens, UniProt Q13976); assay: Kinase profiling; format: binding; settings: read-out: % Ctrl @ 1000 nM
# [32] = molecular target: ULK2 (Homo sapiens, UniProt Q8IYT8); assay: Kinase profiling; format: binding; settings: read-out: % Ctrl @ 1000 nM
# [33] = molecular target: MARK4 (Homo sapiens, UniProt Q96L34); assay: Kinase profiling; format: binding; settings: read-out: % Ctrl @ 1000 nM
# [34] = molecular target: RSK4 (Kin.Dom.2-C-terminal) (Homo sapiens, UniProt Q9UK32); assay: Kinase profiling; format: binding; settings: read-out: % Ctrl @ 1000 nM
# [35] = molecular target: RSK3 (Kin.Dom.2-C-terminal) (Homo sapiens, UniProt Q15349); assay: Kinase profiling; format: binding; settings: read-out: % Ctrl @ 1000 nM
# CAMKK1, sequence (Q8N5S9 whole entry): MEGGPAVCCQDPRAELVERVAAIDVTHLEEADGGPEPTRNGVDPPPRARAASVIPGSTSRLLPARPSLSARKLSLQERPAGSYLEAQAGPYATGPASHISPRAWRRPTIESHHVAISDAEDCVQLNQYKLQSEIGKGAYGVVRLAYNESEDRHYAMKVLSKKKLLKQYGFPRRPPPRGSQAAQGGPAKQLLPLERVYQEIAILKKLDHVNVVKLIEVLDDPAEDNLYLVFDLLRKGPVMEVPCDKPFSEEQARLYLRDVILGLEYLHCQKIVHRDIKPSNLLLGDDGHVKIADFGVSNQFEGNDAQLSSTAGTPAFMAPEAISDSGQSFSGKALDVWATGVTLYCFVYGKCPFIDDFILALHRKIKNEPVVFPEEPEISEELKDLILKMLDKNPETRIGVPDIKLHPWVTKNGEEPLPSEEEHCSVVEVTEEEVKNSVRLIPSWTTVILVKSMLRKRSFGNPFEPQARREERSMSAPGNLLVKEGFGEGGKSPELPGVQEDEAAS
# T4 sequence (P10721 26-976 V654A): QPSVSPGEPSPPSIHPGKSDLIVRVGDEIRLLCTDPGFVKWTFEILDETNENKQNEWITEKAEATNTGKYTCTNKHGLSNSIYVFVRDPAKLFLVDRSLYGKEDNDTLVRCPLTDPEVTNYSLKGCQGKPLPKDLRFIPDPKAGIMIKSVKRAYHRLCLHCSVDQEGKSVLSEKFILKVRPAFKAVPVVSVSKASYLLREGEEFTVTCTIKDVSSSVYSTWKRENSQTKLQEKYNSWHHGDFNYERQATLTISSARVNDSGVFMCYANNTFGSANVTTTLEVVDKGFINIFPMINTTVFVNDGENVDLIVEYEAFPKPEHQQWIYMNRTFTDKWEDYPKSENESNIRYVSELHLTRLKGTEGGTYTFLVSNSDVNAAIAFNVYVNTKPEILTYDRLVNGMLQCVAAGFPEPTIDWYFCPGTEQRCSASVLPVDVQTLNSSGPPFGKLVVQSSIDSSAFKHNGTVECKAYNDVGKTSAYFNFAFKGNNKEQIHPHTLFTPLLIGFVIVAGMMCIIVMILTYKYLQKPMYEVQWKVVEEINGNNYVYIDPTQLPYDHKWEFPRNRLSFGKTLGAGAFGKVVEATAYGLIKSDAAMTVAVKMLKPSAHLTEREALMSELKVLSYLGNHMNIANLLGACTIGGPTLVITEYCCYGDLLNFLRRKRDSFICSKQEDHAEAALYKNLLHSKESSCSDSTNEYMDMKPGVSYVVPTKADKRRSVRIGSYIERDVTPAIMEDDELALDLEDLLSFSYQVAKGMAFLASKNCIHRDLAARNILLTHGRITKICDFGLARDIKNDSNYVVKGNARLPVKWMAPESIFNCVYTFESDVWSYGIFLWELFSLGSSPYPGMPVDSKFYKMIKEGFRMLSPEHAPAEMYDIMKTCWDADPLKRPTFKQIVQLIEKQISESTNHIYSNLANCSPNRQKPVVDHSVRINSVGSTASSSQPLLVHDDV
# SGK, sequence (O00141 whole entry): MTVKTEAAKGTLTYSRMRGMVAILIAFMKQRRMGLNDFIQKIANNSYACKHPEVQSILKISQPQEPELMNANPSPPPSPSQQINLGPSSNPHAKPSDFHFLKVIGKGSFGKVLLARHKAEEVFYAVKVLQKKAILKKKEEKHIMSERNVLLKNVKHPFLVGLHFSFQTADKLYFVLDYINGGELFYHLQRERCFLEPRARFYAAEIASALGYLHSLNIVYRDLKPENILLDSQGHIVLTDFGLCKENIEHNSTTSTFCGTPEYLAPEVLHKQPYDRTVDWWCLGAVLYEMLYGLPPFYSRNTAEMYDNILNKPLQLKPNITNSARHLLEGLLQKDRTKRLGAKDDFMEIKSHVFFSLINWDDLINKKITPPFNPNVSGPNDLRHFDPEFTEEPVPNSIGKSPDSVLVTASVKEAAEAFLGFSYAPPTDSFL
# DYRK1B, sequence (Q9Y463 whole entry): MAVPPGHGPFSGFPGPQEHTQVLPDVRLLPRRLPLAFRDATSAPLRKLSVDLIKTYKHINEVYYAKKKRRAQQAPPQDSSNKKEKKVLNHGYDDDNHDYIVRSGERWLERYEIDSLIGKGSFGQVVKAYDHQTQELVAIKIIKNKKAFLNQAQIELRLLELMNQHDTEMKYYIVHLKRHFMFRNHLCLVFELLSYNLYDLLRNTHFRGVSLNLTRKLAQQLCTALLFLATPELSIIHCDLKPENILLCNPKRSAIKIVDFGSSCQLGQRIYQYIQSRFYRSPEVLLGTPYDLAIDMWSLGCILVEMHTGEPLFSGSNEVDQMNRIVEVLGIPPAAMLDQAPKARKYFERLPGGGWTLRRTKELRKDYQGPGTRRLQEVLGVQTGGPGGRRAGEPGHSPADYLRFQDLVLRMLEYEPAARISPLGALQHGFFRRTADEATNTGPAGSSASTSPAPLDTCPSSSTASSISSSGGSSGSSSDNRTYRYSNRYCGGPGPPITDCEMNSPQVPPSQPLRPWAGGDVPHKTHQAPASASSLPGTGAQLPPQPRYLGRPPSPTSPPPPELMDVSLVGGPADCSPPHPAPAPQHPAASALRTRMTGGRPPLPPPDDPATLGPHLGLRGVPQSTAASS
# TYRO3, sequence (Q06418 41-890): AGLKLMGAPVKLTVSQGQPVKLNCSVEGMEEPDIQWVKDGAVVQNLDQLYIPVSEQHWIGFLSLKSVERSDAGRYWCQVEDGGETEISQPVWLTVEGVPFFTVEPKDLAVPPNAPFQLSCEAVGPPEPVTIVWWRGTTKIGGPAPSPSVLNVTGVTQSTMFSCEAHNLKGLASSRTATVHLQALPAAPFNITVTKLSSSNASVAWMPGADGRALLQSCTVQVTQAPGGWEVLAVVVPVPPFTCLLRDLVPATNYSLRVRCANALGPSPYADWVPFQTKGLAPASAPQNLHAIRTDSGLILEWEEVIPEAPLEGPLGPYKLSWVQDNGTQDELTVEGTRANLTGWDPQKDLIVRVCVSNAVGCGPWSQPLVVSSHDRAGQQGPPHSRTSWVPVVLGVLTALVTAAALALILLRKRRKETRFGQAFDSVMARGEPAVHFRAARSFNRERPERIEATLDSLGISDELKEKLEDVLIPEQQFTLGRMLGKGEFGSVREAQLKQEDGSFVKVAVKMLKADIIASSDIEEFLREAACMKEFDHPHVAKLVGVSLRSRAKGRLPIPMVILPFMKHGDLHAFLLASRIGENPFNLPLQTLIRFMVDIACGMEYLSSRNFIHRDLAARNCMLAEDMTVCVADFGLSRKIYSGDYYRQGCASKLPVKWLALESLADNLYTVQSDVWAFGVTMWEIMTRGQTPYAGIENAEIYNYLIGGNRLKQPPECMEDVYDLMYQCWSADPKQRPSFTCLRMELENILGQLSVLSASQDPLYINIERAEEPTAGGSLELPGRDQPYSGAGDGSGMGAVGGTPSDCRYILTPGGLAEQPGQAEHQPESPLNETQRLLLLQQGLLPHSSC
# CAMKK2, sequence (Q96RR4 whole entry): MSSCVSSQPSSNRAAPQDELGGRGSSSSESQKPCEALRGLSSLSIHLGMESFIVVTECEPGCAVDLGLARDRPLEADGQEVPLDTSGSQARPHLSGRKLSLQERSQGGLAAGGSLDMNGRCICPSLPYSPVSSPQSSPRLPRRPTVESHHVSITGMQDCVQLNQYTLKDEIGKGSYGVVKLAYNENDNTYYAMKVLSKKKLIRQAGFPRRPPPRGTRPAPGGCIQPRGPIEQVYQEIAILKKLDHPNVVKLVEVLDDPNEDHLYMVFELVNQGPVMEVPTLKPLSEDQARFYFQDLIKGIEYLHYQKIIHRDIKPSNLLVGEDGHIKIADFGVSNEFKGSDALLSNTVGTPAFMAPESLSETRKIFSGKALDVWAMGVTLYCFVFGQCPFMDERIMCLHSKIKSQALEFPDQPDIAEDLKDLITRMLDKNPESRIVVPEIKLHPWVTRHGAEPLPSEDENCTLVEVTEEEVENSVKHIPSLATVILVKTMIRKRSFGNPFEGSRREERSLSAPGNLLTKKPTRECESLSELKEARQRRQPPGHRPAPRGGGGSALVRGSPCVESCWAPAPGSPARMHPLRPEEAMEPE
# DDR1, sequence (Q08345 19-876 isoform Q08345-2 limits assumed): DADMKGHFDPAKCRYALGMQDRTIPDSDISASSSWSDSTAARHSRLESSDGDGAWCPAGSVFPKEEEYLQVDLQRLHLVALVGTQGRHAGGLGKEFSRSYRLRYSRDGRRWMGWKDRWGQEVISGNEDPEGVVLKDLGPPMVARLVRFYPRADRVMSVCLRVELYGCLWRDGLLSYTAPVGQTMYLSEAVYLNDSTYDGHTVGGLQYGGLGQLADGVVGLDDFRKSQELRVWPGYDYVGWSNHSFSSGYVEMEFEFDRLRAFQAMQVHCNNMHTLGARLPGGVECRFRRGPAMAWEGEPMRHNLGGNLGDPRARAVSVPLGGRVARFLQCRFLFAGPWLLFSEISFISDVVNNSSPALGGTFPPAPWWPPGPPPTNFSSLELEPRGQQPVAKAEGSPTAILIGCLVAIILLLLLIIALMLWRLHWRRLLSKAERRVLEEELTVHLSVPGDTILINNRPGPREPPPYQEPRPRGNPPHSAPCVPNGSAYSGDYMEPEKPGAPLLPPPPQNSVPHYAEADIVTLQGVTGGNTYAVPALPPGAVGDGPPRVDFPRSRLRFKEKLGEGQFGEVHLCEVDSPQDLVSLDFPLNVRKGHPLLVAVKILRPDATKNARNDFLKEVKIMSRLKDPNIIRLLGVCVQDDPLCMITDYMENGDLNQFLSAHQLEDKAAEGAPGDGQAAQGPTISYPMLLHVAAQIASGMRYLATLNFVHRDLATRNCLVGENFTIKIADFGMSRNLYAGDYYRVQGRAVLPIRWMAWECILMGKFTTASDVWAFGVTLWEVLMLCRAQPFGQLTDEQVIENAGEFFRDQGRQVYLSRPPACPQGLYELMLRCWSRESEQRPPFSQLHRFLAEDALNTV
smiles,measurement,setting,value
Cc1cc(Oc2cc(NC(=O)C3CC3)ncn2)ccc1NC(=O)Nc1ccc(Cl)c(C(F)(F)F)c1 [CBT-102],remaining activity at 1 µM,[1],100%
same,remaining activity at 1 µM,[2],98%
same,remaining activity at 1 µM,[3],0.3%
same,remaining activity at 1 µM,[4],88%
same,remaining activity at 1 µM,[5],87%
same,% Ctrl @ 1000 nM,[6],18%
same,remaining activity at 1 µM,[7],86%
same,remaining activity at 1 µM,[8],93%
same,remaining activity at 1 µM,[9],94%
same,remaining activity at 1 µM,[10],91%
same,remaining activity at 1 µM,[11],56%
same,pIC50,[12],< 5.00
same,pIC50,[13],7.15
same,pIC50,[14],6.56
same,remaining activity at 1 µM,[15],88%
same,remaining activity at 1 µM,[16],87%
same,remaining activity at 1 µM,[17],100%
same,remaining activity at 1 µM,[18],99%
same,remaining activity at 1 µM,[19],100%
same,remaining activity at 1 µM,[20],74%
same,remaining activity at 1 µM,[21],100%
same,remaining activity at 1 µM,[22],83%
same,remaining activity at 1 µM,[23],100%
same,remaining activity at 1 µM,[24],92%
same,remaining activity at 1 µM,[25],93%
same,remaining activity at 1 µM,[26],96%
same,remaining activity at 1 µM,[27],100%
same,remaining activity at 1 µM,[28],82%
same,remaining activity at 1 µM,[29],16%
same,remaining activity at 1 µM,[30],99%
same,remaining activity at 1 µM,[31],100%
same,remaining activity at 1 µM,[32],98%
same,remaining activity at 1 µM,[33],100%
same,remaining activity at 1 µM,[34],73%
same,remaining activity at 1 µM,[35],92%
